Results reported in patent US5922558A, “Methods and compositions for generating chemiluminescence with a peroxidase” (Lumigen, Inc., priority 1997, dated 1999).
“Also recorded” adds a separate entry of the source. One block for each molecule: values may come before it.

How the values were obtained:
[1] = target: T1, horseradish peroxidase (HRP) (Armoracia rusticana, UniProt P00433); experiment: Chemiluminescent detection of HRP in solution with reagent composition (tris buffer, urea peroxide, p-phenylphenol, EDTA, Tween 20); type: biochemical
T1 sequence (P00433 31-353): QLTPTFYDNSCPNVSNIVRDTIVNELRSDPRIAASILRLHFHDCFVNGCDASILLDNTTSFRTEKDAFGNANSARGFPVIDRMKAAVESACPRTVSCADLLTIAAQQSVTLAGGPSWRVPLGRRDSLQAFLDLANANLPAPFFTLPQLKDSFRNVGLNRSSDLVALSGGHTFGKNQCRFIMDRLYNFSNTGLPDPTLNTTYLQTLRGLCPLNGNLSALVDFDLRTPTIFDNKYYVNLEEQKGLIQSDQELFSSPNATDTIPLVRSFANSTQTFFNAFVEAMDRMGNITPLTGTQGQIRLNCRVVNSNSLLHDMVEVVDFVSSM
Procedure: (§1) Reagent compositions comprising 0.055M tris buffer, pH 8.6, 0.25 mM urea peroxide, 0.05 mM p-phenylphe nol, 0.5 mM EDTA, 0.0125% Tween 20 and 3.3×10^-4 M acridan 5 were tested for production of chemiluminescence by reacting triplicate 100 μL aliquots with 10 μL of solutions of HRP in water containing between 1.4×10^-15 and 1.4×10^-19 moles of enzyme. […] The relation between chemiluminescence intensity at 15 min and amount of enzyme is depicted in FIG. 1.
as §1, with “mM p-phenylphenol,” for “mM p-phenylphe nol,”, “acridan 13” for “acridan 5”, “intensity” for “intensity at 15 min”, “FIG. 2.” for “FIG. 1.”
In the manner of Example 21, compositions containing each of compounds 1-4 and 6-12 and 14 were reacted with HRP at 25° C. Each produced easily measurable chemiluminescence discernable above the background measured in the absence of HRP.
The chemiluminescence profile of acridan phosphate 5 reacted with HRP is depicted in FIG. 3. Reaction of 100 μL of the reagent composition of Example 20 with 1.4×10^-15 mol of HRP at 25° C. caused an instant rise in light emission which achieved maximum intensity in ca. 5 min.
(§2) Reagent compositions comprising 0.01M tris buffer, pH 8.0, 0.5 mM urea peroxide, 0.1 mM p-phenylphenol, 1 mM EDTA, 0.025% Tween 20 and 5×10^-5 M acridan 37 were tested for production of chemiluminescence by reacting triplicate 100 μL aliquots with 10 μL of HRP in the range 1.4×10^-14 to 1.4×10^-19 moles. […] The relation between chemiluminescence intensity and amount of enzyme is depicted in FIG. 4.
A reagent composition (40 μL) comprising 0.01M tris buffer, pH 8.0, 0.5 mM urea peroxide, 0.1 mM p-phenylphenol, 1 mM EDTA, 0.025% Tween 20 and 5×10^-5 M acridan 38 was reacted with 1 μL of a solution containing 1.4×10^-15 moles of HRP. […] The chemiluminescence time profile is depicted in FIG. 5.
as §2, with “39” for “37”, “1.4×10^-15” for “1.4×10^-14”, “1.4×10^-20” for “1.4×10^-19”, “6.” for “4.”
A reagent composition (100 μL) comprising 0.01M tris buffer, pH 8.0, 0.5 mM urea peroxide, 0.1 mM p-phenylphenol, 1 mM EDTA, 0.025% Tween 20 and 5×10^-5 M acridan 40 was reacted with 10 μL of a solution containing 1.4×10^-15 moles of HRP.
A reagent composition (100 μL) comprising 0.01M tris buffer, pH 8.0, 0.5 mM urea peroxide, 0.1 mM p-phenylphenol, 1 mM EDTA, 0.025% Tween 20 and 5×10^-5 M acridan 50 was reacted with 2.5 μL of a solution containing 3.5×10^-16 moles of HRP. […] The chemiluminescence time profile is depicted in FIG. 7.
Reagent compositions comprising 0.055M tris buffer, pH 8.6, 0.25 mM urea peroxide, 0.05 mM p-phenylphenol, 0.5 mM EDTA, 0.0125% Tween 20, 1 mM CTAB and 6.6×10^-4 M acridan 43 were tested for production of chemiluminescence by reacting triplicate 100 μL aliquots with 10 μL of solutions of HRP containing between 1.4×10^-15 and 1.4×10^-19 moles of HRP. The relation between chemiluminescence intensity at 15 min and amount of enzyme is depicted in FIG. 8.
Reagent compositions comprising 0.055M tris buffer, pH 8.6, 0.25 mM urea peroxide, 0.05 mM p-phenylphenol, 0.5 mM EDTA, 0.0125% Tween 20, 1 mM CTAB and 6.6×10^-4 M compound 46 alone or with 50 μM DBA were tested for production of chemiluminescence by reacting a 100 μL aliquot with 3.5×10^-15 moles of HRP.

[2] = target: T2, sheep anti-mouse-HRP conjugate (Armoracia rusticana, UniProt P00433); experiment: Western blot assay of β-galactosidase via an HRP-labeled antibody with chemiluminescent reagent, X-ray film; details: for Western blot result compared with reagent containing compound 5: both PVDF and nitrocellulose membranes
T2 construct: purchased Boehringer-Mannheim
T2 sequence (P00433 31-338 limits assumed): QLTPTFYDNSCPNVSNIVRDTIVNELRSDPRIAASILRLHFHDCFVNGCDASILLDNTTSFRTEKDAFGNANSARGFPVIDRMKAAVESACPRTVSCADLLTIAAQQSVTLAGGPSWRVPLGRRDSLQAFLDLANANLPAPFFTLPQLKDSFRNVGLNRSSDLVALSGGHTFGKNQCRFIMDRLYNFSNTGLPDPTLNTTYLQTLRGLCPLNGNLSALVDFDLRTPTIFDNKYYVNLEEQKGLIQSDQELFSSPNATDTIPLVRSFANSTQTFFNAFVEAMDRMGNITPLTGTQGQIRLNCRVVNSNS
Source text: Compositions of the present invention were used to detect and quantify a protein, β-galactosidase (β-gal) in a Western blot with an HRP-labeled antibody on a polyvinylidene difluoride (PVDF) membrane. Dilutions of β-gal containing 5000, 1000, 180, 30 and 5 pg, respectively, of protein were electrophoresed and transferred to PVDF membranes (Millipore, Bedford, Mass.). The membranes were blocked with 1% non-fat milk in T-TBS (0.05% Tween 20 in TBS; TBS is 50 mmol/L Tris-HCl, pH 7.4, 0.15 mol/L NaCl) and then reacted sequentially with a 1:1500 dilution of mouse anti-β-gal (Boehringer-Mannheim, Indianapolis) and 1:600 dilution of sheep anti-mouse-HRP conjugate (Boehringer-Mannheim). The membranes were washed in T-TBS and soaked for 3 min with a reagent comprising 0.055M tris buffer, pH 8.6 containing 0.66 mM acridan phosphate 5, 0.05 mM p-phenylphenol, 0.25 mM urea peroxide, 0.5 mM EDTA, 0.0125% Tween 20. The membranes were placed between transparent plastic sheets and exposed to X-ray film. […] The light produced led to intense emission which could be imaged for several hours.
A Western blot assay according to the procedure in the previous example was performed using nitrocellulose membrane (Schleicher & Schuell, Keene, N.H.) as the solid phase. β-Galstandards in the range of 5000-5 pg were used. The detection reagent of the previous example permitted detection to be performed over several hours.

[3] = target: T3, peroxidase (Armoracia rusticana, UniProt P00433); experiment: Reaction with a peroxidase and a peroxide to produce chemiluminescence (general statements); type: biochemical; details: with versus without CTAB
T3 construct: isoenzyme C dominant
T3 sequence (P00433 31-338): T2 sequence (P00433 31-338 limits assumed)
Procedure: Another aspect of the present invention is the use of compounds of any of formulas I-VI in a method to produce chemiluminescence by reaction with a peroxidase. Reaction of a compound of formula I-VI with a peroxidase and a peroxide in an aqueous buffer solution produces easily detected chemiluminescence. Light intensity reaches a maximum level within minutes at room temperature when the reaction is conducted at alkaline pH. The reaction is conducted optionally in the presence of an enhancer. [drawing 15] Cationic surfactants, including quaternary ammonium salt compounds such as CTAB, are advantageous for use in increasing the level of chemiluminescence emitted when certain compounds of the present invention are reacted with a peroxidase and a peroxide.

[4] = 0.01M tris pH 8.0, 0.5 mM urea peroxide, 0.1 mM p-phenylphenol, 5×10^-5 M acridan
[5] = 0.055M tris pH 8.6, 0.25 mM urea peroxide, 0.05 mM p-phenylphenol, 3.3×10^-4 M compound, HRP 1.4×10^-15 to 1.4×10^-19 moles

production of chemiluminescence on reaction with HRP [1, 4]: Light production ensued upon mixing
time to maximum chemiluminescence intensity ([1]; 100 μL reagent, 0.01M tris pH 8.0, 5×10^-5 M acridan, 1.4×10^-15 moles HRP): 7 min
Structure (SMILES): CC(=O)OC(Sc1ccccc1)=C1c2ccccc2N(C)c2ccccc21 [Compound 40]

production of chemiluminescence on reaction with HRP [1, 5]: Light production ensued upon mixing
time to maximum chemiluminescence intensity ([1]; 100 μL reagent of Example 20 (0.055M tris pH 8.6, 3.3×10^-4 M acridan), 1.4×10^-15 mol HRP, 25° C.): ca. 5 min
duration over which emission could be imaged, Western blot, PVDF membrane ([2]; 0.66 mM compound, tris pH 8.6): several hours
Structure (SMILES): CN1c2ccccc2C(=C(OP(=O)(O)O)Sc2ccccc2)c2ccccc21 [Compound 5]
detection of β-gal in Western blot, PVDF membrane ([2]; β-gal 5000, 1000, 180, 30 and 5 pg, 0.66 mM compound, 30 s exposure after 14 min): detection of β-gal; also recorded: detected

effect of triplet energy acceptor DBA on chemiluminescence ([1]; 0.055M tris pH 8.6, 1 mM CTAB, 6.6×10^-4 M compound alone or with 50 μM DBA, 3.5×10^-15 moles HRP): enhancement of chemiluminescence
change of light intensity when CTAB was included in the reaction mixture [3]: increased more than ten-fold
Structure (SMILES): O=P(O)(O)OC(Sc1ccccc1)=C(c1ccccc1)c1ccccc1 [Compound 46]

Structure (SMILES): CCOP(=O)(OCC)OC(Oc1ccccc1)=C1c2ccccc2N(C)c2ccccc21 [Compound 37]
production of chemiluminescence on reaction with HRP [1, 4]: Light production ensued upon mixing

production of chemiluminescence on reaction with HRP [1, 4]: Light production ensued upon mixing
time to maximum chemiluminescence intensity ([1]; 100 μL reagent, 0.01M tris pH 8.0, 5×10^-5 M acridan, HRP 1.4×10^-15 to 1.4×10^-20 moles): 30 min
Structure (SMILES): CC(=O)OC(Oc1ccccc1)=C1c2ccccc2N(C)c2ccccc21 [Compound 39]

production of chemiluminescence on reaction with HRP [1, 4]: Light production ensued upon mixing
time to maximum chemiluminescence intensity ([1]; 100 μL reagent, 0.01M tris pH 8.0, 5×10^-5 M acridan, 3.5×10^-16 moles HRP, 25° C.): 7 min
Structure (SMILES): COC(Sc1ccccc1)=C1c2ccccc2N(C)c2ccccc21 [Compound 50]

Structure (SMILES): CN1c2ccccc2C(=C(OP(=O)(O)O)Sc2ccc(Cl)cc2)c2ccccc21 [Compound 12]
Western blot result compared with reagent containing compound 5 [2]: qualitatively the same result

Western blot result compared with reagent containing compound 5 [2]: qualitatively the same result
Structure (SMILES): CN1c2ccccc2C(=C(Oc2ccccc2)OP(=O)(O)O)c2ccccc21 [Compound 1]

Structure (SMILES): CCOP(=O)(OCC)OC(Sc1ccccc1)=C1c2ccccc2N(C)c2ccccc21 [Compound 38]
production of chemiluminescence on reaction with HRP [1, 4]: Light production ensued upon mixing
time to maximum chemiluminescence intensity ([1]; 40 μL reagent, 0.01M tris pH 8.0, 5×10^-5 M acridan, 1.4×10^-15 moles HRP, 25° C.): 1 min

change of light intensity when CTAB was included in the reaction mixture [3]: increased more than ten-fold
Structure (SMILES): CC(=C(OP(=O)(O)O)Sc1ccccc1)c1ccc2cc(O)ccc2c1 [Compound 43]

production of chemiluminescence on reaction with HRP [1, 5]: Light production ensued upon mixing
Western blot result compared with reagent containing compound 5 [2]: qualitatively the same result
Structure (SMILES): CN1c2ccccc2C(=C(OP(=O)(O)O)Sc2ccc3ccccc3c2)c2ccccc21 [Compound 13]
